For one series, the system named is CfVgRXR. Description: Transactivation of reporter genes through switch 1.10 in CV1 cells. It counts as cell-based, Choristoneura fumiferana. The following applies: switch 1.10 CfVgRXR, pIND(SP1)LacZ. On the procedure: This example was prepared in the same way as switch 1.9 except MmRXR (SEQ ID NO: 53) was deleted.
The same procedures described for NIH3T3 cells were followed for CV1 cells
(§1) Cells were harvested 24-48 hr after adding ligands. […] Twenty μl of lysate was assayed.

For series [1], the system named is GAL4EcR + VP16RXR. Kind of series: Transactivation of reporter genes through switch 1.1 in 293 cells. It counts as cell-based, Choristoneura fumiferana. The following applies: switch 1.1 GAL4EcR + VP16RXR, pGAL4RELuc. On the procedure: The same procedures described for CHO were followed for 293 cells except that the cells were plated in biocoated plates to avoid clumping.
as §1
(In a reporter assay the amount or activity of a reporter protein is the signal.)

The next series deals with CfEcR. Kind of series: Comparison of switches in the mammalian cell lines tested (Tables 1-4). It counts as cell-based, Choristoneura fumiferana. The following applies: see Tables 1-4. On the procedure:
Several commercially available lipofactors as well as electroporation methods were evaluated and the best conditions for transfection of each cell line were developed. CHO, NIH3T3, 293 and CV1 cells were grown to 60% confluency. DNAs corresponding, to the various switch constructs outlined in Examples 1.1 through 1.10 were transfected into CHO cells, NIH3T3 cells, 293 cells, or CV1 cells as follows.
as §1

Series [2] relates to GAL4EcR + VP16RXR. Kind of series: Transactivation of reporter genes through switch 1.1 in 3T3 cells. An excerpt: (§2) In various cellular backgrounds, including mammalian cells, insect ecdysone receptor (EcR) heterodimerizes with retinoid X receptor (RXR) and, upon binding of ligand, transactivates genes under the control of ecdysone response elements. Applicants constructed several EcR-based gene expression cassettes based on the spruce budworm Choristoneura fumiferana EcR (“CfEcR”; full length polynucleotide and amino acid sequences are set forth in SEQ ID NO: 49 and SEQ ID NO: 50, respectively), C. fumiferana ultraspiracle (“CfUSP”; full length polynucleotide and amino acid sequences are set forth in SEQ ID NO: 51 and SEQ ID NO: 52, respectively), and mouse Mus musculus RXRα (MmRXRα; full length polynucleotide and amino acid sequences are set forth in SEQ ID NO: 53 and SEQ ID NO: 54, respectively). The prepared receptor constructs comprise a ligand binding domain of EcR and of RXR or of USP; a DNA binding domain of GAL4 or of EcR; and an activation domain of VP16. The reporter constructs include a reporter gene, luciferase or LacZ, operably linked to a synthetic promoter construct that comprises either GAL4 or EcR/USP binding sites (response elements). Various combinations of these receptor and reporter constructs were cotransfected into CHO, NIH3T3, CV1 and 293 cells. […] Reporter gene expression activities were assayed at 24 hr or 48 hr after ligand addition.
(§3) The same procedures described for CHO cells were followed for 3T3 cells as well with two modifications. The cells were plated when they reached 50% confluency. 125,000 or 50,000 or 25,000 cells were plated per well of 6- or 12- or 24-well plates respectively. The GAl4EcR/VP16RXR and reporter vector DNAs were transfected into NIH3T3 cells, the transfected cells were grown in medium containing PonA, MurA, N-(2-ethyl-3-methoxybenzoyl)-N′-(3,5-dimethylbenzoyl)-N′-t-butylhydrazine, or N-(3,4-(1,2-ethylenedioxy)-2-methylbenzoyl)-N′-(3,5-dimethylbenzoyl)-N′-tert-butylhydrazine for 48 hr. The ligand treatments were performed as described in the CHO cell section above.
(§4) Cells were harvested 24-48 hr after adding ligands. 125, 250, or 500 μl of passive lysis buffer (part of Dual-luciferase™ reporter assay system from Promega Corporation) were added to each well of 24- or 12- or […] respectively. The plates were placed on a rotary shaker for 15 min. Twenty μl of lysate was assayed. Luciferase activity was measured using Dual-luciferase™ reporter assay system from Promega Corporation following the manufacturer's instructions. β-Galactosidase was measured using Galacto-Star™ assay kit from TROPIX following the manufacturer's instructions. All luciferase and β-galactosidase activities were normalized using Renilla luciferase as a standard. Fold activities were calculated by dividing normalized relative light units (“RLU”) in ligand treated cells with normalized RLU in DMSO treated cells (untreated control).

The subject of a further series is GAL4RXR + VP16CfEcR. Description: Transactivation of reporter genes through switch 1.3 in 3T3 cells.
Text: as §2
MmRXRDEF (SEQ ID NO: 22) was fused to a GAL4DNABD (SEQ ID NO: 41) and CfEcRCDEF (SEQ ID NO: 1) was fused to a VP16AD (SEQ ED NO: 45).
as §3, §4

Structures are written as SMILES.

For the molecule `CCc1c(OC)cccc1C(=O)NN(C(=O)c1cc(C)cc(C)c1)C(C)(C)C` [N-(2-ethyl-3-methoxybenzoyl)-N′-(3,5-dimethylbenzoyl)-N′-tert-butylhydrazine], the “Mean Fold Activation Through N-(2-ethyl-3-methoxybenzoyl)-N′-(3,5-dimethylbenzoyl)-N′-t-butylhydrazine” value in the series on CfVgRXR stood at 1 fold; in the series on GAL4EcR + VP16RXR [1], 125 fold; in the series with GAL4EcR + VP16RXR [2] (switch 1.1 GAL4EcR + VP16RXR, pGAL4RELuc), 1118 fold; in the series on GAL4RXR + VP16CfEcR (switch 1.3 GAL4RXR + VP16CfEcR, pGAL4RELuc) it was 47 fold. Further, the “potency as activators of CfEcR as compared to DmEcR” value with CfEcR is “more potent activators of CfEcR”. The “Mean Fold Induction at 1.0 μM Concentration” value in the series on GAL4EcR + VP16RXR [2] (GAL4CfEcRDEF/VP16MmRXRDEF (switch 1.1), 1.0 μM ligand, 48 hr) is given as 116 fold; in the series with GAL4RXR + VP16CfEcR (GAL4MmRXRDEF/VP16CfEcRCDEF (switch 1.3), 1.0 μM ligand), 71 fold.

The values above are taken from patent publication US8822754B2, “Ecdysone receptor-based inducible gene expression system” (Intrexon Corporation, priority 2000, dated 2014).
